Laboratory results from patent US20250135020A1, “METHODS FOR TREATING NON-MUSCLE INVASIVE BLADDER CANCER (NMIBC) WITH ANTIBODY DRUG CONJUGATES (ADC) THAT BIND TO 191P4D12 PROTEINS” (priority 2021, published 2025).
Non-standard residues stand in square brackets, D forms with d. Residues, ends and D or L forms follow the SMILES beside them. *: point of attachment. Dolaproine = CO[C@@H]([C@@H]1CCCN1)[C@@H](C)C(=O)O; Dil = CC[C@H](C)[C@H](NC)[C@@H](CC(=O)O)OC; X1 = C[C@@H](N*)[C@@H](O)c1ccccc1; NMeV = CN[C@H](C(=O)O)C(C)C

Test system: Nectin-4 overexpressing bladder carcinoma cells (UM-UC-3-hNectin-4+)
Test: In vitro cytotoxic activity under conditions that mimic intravesical dosing (Cell TiterGlo)
Assay type: cell-based, human
Conditions: UM-UC-3-hNectin-4+ cells; 2 h exposure then wash out vs 96 h; cell death by Cell TiterGlo
Description: To assess cytotoxic activity of EV in vitro under conditions that mimic intravesical dosing, Nectin-4 overexpressing bladder carcinoma cells (UM-UC-3-hNectin-4^+) were exposed to either EV, unconjugated anti-Nectin-4 antibody, unconjugated MMAE, or control ADC (FIG. 2). IV dosing was modeled by exposing the cells for 96 hours. Intravesical dosing was modeled with exposures of 2 and 24 hours followed by test article wash out. Cell death was measured using Cell TiterGlo® (Promega Corporation, Madison, WI, USA).

## CC[C@H](C)[C@@H]([C@@H](CC(=O)N1CCC[C@H]1[C@H](OC)[C@@H](C)C(=O)N[C@H](C)[C@@H](O)c1ccccc1)OC)N(C)C(=O)[C@@H](NC(=O)[C@@H](NC)C(C)C)C(C)C [unconjugated MMAE, monomethyl auristatin E] (H-[NMeV]V[Dil][Dolaproine]-X1)
  Decrease in potency (EC90) on decreasing the exposure from 96 to 2 hours: 44 fold
